Assay results as given in article PMC9031459, “Experimental Comparison of Primary and hiPS-Based In Vitro Blood–Brain Barrier Models for Pharmacological Research” (Pharmaceutics, 2022).

Columns and labels:
hiPS-BCECs [1] = test: Permeability/transport across hiPS-BCEC barrier in microfluidic Quasi Vivo QV600 setup; settings: fluidic system; for caffeine concentration, basolateral side: 100 µM caffeine apical
Description: (§6) The microfluidic studies were performed using the commercial Quasi Vivo® QV600 system ([…] ., York, UK). […] On day 10, when the barrier has been established, the membrane containing the blood-brain barrier was inserted into the QV 600 chamber. The apical channel was filled with enriched endothelial medium (heSFM with 5% […] added to the basolateral channel. A fluidic flow with a flow rate of 200 μL min^-1 was established and experiments were performed for up to 4 days. […] For comparison, samples in the static setting were collected at the same time points with a separate insert for each time point. […] Standard dilutions of sample media were used for quantification and sample media from cell wells without sodium fluorescence application were used for background subtraction. All measurements were performed in duplex at least. […] Samples were collected from both the apical and basolateral circuits, filtered using Whatman Mini-UniPrepTM filters (VWR International, […] , Germany) and caffeine concentrations measured using HPLC. […] At a flow rate of 0.4 mL min^-1, 5 μL of sample was injected and separated at a column temperature of 60 °C.

[2] = as above; settings: human, not told
Description: as §6

hiPS-BCECs [3] = test: Permeability/transport across hiPS-derived BCEC monolayer on membrane inserts (static); settings: for caffeine concentration, basolateral side / caffeine concentration, apical side: Figure 8B (static system), 100 µM caffeine apical; for permeability coefficient: hiPS-BCECs
Description: (§1) The stem cell line UKKi011-A was differentiated according to the protocol published by Stebbins et al. with slight modifications (Figure 2B). Cells were seeded at a density of 5 × 10^3 cells cm^−2 on Matrigel-coated (Corning, Amsterdam, The Netherlands) 6-well plates and cultivated for 3 days in mTeSR1 medium (Stem Cell Technologies, Vancouver, BC, Canada) before initiating the differentiation. On day 0, the mTeSR1 medium was switched to unconditioned medium (DMEM/F12 with 20% knock-out serum replacement, 1% non-essential amino acids, 0.5% GlutaMAX and […] 2-mercaptoethanol) and medium was exchanged daily for 5 days. On day 6, the medium was changed to endothelial medium with growth factors (heSFM with 1% platelet-poor plasma-derived human serum (PDS; SigmaAldrich, Taufkirchen, Germany), 20 ng mL^−1 bFGF (R&D Systems, Minneapolis, MN, USA) and 10 µM retinoic acid (SigmaAldrich, Taufkirchen, Germany)). On day 8, cells were dissociated with Accutase for 25 min at 37 °C and seeded at a density of 1 × 10^6 cells cm^−2 in endothelial medium with growth factors. Cells were seeded onto membrane inserts with 3.0 µm pore size (VWR International, Darmstadt, Germany) and coated with 400 µg mL^−1 human collagen IV (SigmaAldrich, Taufkirchen, Germany) and 100 µg mL^−1 fibronectin (SigmaAldrich, Taufkirchen, Germany) in 0.05% acetic acid. The medium was changed 24 h after seeding to either endothelial medium without growth factors (heSFM with 1% PDS) or enriched endothelial medium (heSFM with 5% PDS) on the apical side and heSFM on the basolateral side. Experiments were performed on day 10 or 11.
(§2) The substances of interest were added to the apical side of the membranes, incubated for 3 h at 37 °C, 5% CO2 and 90% relative humidity, and then the samples were collected from the apical and basolateral compartment for measurement. In the microfluidic setup, sodium fluorescein and caffeine (SigmaAldrich, Taufkirchen, Germany) were added to the apical channel and samples were collected 4, 24, 48 (only caffeine) and 72 h after application from both fluidic channels.
(§3) Sodium fluorescein was added to a final concentration of 1 µg mL^−1, the samples were transferred to black 96-well plates and fluorescence was measured at an excitation of 485 nm and emission of 535 nm with a Tecan infinite 200 plate reader (Tecan Group Ltd., Männedorf, Switzerland).
(§4) After incubation, the apical and basolateral medium were collected separately, transferred to plastic vials containing 5 mL Ultima Gold scintillation liquid (Perkin Elmer, Waltham, MA, USA) and radioactive decay was measured with a Tri-Carb 2910TR Scintillation counter (Perkin Elmer, Waltham, MA, USA).
(§5) Caffeine was added to a final concentration of 100 µM to the apical circuit. […] Detection was achieved using a Diode-Array-Detector (DAD) at a wavelength of 275 nm.

[4] = as above; settings: human
Description: as §1, §2, §3, §4, §5

[5] = system: co-culture model of human hiPS-BCECs and rat glial cells; design: method as in PMID 31690750; settings: literature value ref 24; cited from earlier work
pBCECs = test: Permeability across primary porcine BCEC monolayer on Transwell inserts (static); type: in vitro ADME, Sus scrofa domestica; settings: 3 h incubation
Description: The substances of interest were added to the apical side of the membranes, incubated for 3 h at 37 °C, 5% CO2 and 90% relative humidity, and then the samples were collected from the apical and basolateral compartment for measurement.

[6] = static, established protocol / equal serum distribution (1% PDS both sides), apical application, 3 h incubation
[7] = static, serum only in apical medium (5% PDS apical, serum-free basolateral), 3 h incubation

| Compound | caffeine concentration, basolateral side (hiPS-BCECs [1]; 4 h) [µM] | caffeine concentration, basolateral side (hiPS-BCECs [1]; 24 h) [µM] | caffeine concentration, basolateral side (hiPS-BCECs [1]; 48 h) [µM] | caffeine concentration, basolateral side (hiPS-BCECs [1]; 72 h) [µM] | Papp at 100 µM [2] [×10⁻⁶ cm/s] | caffeine concentration, basolateral side (hiPS-BCECs [3]; 4 h) [µM] | caffeine concentration, apical side (hiPS-BCECs [3]; 24 h) [µM] | caffeine concentration, basolateral side (hiPS-BCECs [3]; 24 h) [µM] | caffeine concentration, apical side (hiPS-BCECs [3]; 48 h) [µM] | caffeine concentration, basolateral side (hiPS-BCECs [3]; 48 h) [µM] | Papp at 100 µM [4] [×10⁻⁶ cm/s] | permeability coefficient, literature value [5] | permeability coefficient (hiPS-BCECs [1]; hiPS-BCECs, flow 200 µL min^−1, 5% PDS apical, serum-free basolateral) | permeability coefficient (hiPS-BCECs [3]; static system compared with fluidic, 5% PDS apical, serum-free basolateral) | permeability coefficient (hiPS-BCECs [3]; [6]) [cm/s] | permeability coefficient (hiPS-BCECs [3]; [7]) [cm/s] | permeability coefficient (pBCECs; 5% FCS apical, serum-free basolateral) [×10⁻⁶ cm/s] | permeability coefficient (pBCECs; established protocol (serum-free medium on both sides), apical application) [×10⁻⁶ cm/s] |
| --- | --- | --- | --- | --- | --- | --- | --- | --- | --- | --- | --- | --- | --- | --- | --- | --- | --- | --- |
| Cn1c(=O)c2c(ncn2C)n(C)c1=O [caffeine] | 5.91 ± 3.36 | 14.85 ± 3.50 | 17.08 ± 4.44 | 17.72 ± 3.34 | 30.4 | 24.46 ± 1.90 | 36.30 ± 2.71 | 36.19 ± 3.18 | 37.74 ± 3.02 | 37.97 ± 2.88 | 9 | 3.1 × 10^–5 cm s^−1 | – | – | – | – | – | – |
| O=C([O-])c1ccccc1-c1c2ccc(=O)cc-2oc2cc([O-])ccc12.[Na+].[Na+] [sodium fluorescein] | – | – | – | – | – | – | – | – | – | – | – | – | 2.75 × 10^–6 ± 1.61 × 10^–6 cm s^−1 | 0.81 × 10^–6 ± 0.82 × 10^–7 cm s^−1 | 1.41e-06 | 8e-07 | 0.62 | 1.85 |
| inulin [[14C]-inulin] | – | – | – | – | – | – | – | – | – | – | – | – | – | – | 3.19e-06 | 8.9e-07 | – | – |
